Our source for the IC50 values is US20230081390A1, “INHIBITORS OF RAF KINASES” (Kinnate Biopharma Inc., priority 2019, published 2023).

For this assay, the target named is human RAF1 (Homo sapiens, UniProt P04049). In words: Protein kinase assay (33P-ATP filter binding), human RAF1, 10-dose IC50. Conditions: MEK1 (K97R) substrate 3 micromolar, ATP 10 micromolar, read-out: RAF-1 IC50. Type of assay: biochemical. The method, boiled down: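 Radiometric filter-binding format: 10 µM ATP, 3 µM MEK1 (K97R) as substrate for human RAF1, 2 hr at room temperature in 20 mM HEPES pH 7.5 with 10 mM MgCl2. Compounds were dispensed acoustically from DMSO. IC50 came from percent kinase activity relative to vehicle over a 10-dose series.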
human RAF1, sequence (P04049 whole entry): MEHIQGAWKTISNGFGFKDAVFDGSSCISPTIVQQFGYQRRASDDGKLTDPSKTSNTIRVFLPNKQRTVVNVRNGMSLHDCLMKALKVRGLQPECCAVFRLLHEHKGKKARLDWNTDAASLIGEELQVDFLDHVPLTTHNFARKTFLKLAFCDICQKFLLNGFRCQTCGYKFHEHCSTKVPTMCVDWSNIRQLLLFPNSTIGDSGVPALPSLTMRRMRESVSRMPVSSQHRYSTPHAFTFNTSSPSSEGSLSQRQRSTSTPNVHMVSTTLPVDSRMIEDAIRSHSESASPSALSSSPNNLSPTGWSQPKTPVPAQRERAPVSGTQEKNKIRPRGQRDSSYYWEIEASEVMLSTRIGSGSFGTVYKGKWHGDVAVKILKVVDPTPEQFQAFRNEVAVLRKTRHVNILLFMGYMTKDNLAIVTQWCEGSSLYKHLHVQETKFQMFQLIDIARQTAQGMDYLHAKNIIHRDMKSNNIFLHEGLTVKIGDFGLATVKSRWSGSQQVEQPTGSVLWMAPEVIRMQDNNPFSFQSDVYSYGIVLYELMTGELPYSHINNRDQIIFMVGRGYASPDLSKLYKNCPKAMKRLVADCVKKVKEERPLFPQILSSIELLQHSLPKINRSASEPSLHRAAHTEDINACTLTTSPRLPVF

In the case of `Cc1ccc(NC(=O)N2C[C@@H]3[C@H](C2)[C@H]3C(F)(F)F)cc1-c1cc(OCCO)nc(N2CCOCC2)c1` [Example 176, (1R,5S,6r)-N-(3-(2-(2-hydroxyethoxy)-6-morpholinopyridin-4-yl)-4-methylphenyl)-6-(trifluoromethyl)-3-azabicyclo[3.1.0]hexane-3-carboxamide], the IC50 is < 10 nM.
The result for `Cc1ccc(NC(=O)N2CCC(CC(F)(F)F)C2)cc1-c1cc(OC[C@@H](O)CO)nc(N2CCOCC2)c1` (stereo partly drawn) [Example 179, N-(3-(2-((S)-2,3-dihydroxypropoxy)-6-morpholinopyridin-4-yl)-4-methylphenyl)-3-(2,2,2-trifluoroethyl)pyrrolidine-1-carboxamide] reads < 10 nM.
With `Cc1ccc(NC(=O)N2CCC(CC(F)(F)F)C2)cc1-c1cc(OC[C@H](O)CO)nc(N2CCOCC2)c1` (stereo partly drawn) [Example 180, N-(3-(2-((R)-2,3-dihydroxypropoxy)-6-morpholinopyridin-4-yl)-4-methylphenyl)-3-(2,2,2-trifluoroethyl)pyrrolidine-1-carboxamide] the figure was < 10 nM.
With `Cc1cc(F)c(NC(=O)N2CC[C@@H](CC(F)(F)F)C2)cc1-c1cc(OC[C@@H](C)O)nc(N2CCOCC2)c1` [Example 181, (S)-N-(2-fluoro-5-(2-((R)-2-hydroxypropoxy)-6-morpholinopyridin-4-yl)-4-methylphenyl)-3-(2,2,2-trifluoroethyl)pyrrolidine-1-carboxamide] the figure was < 10 nM; with `Cc1ccc(NC(=O)N2CCC(CC(F)(F)F)C2)cc1-c1cc(OC2CCOCC2)nc(N2CCOCC2)c1` (stereo not drawn) [Example 187, N-(4-methyl-3-(2-morpholino-6-((tetrahydro-2H-pyran-4-yl)oxy)pyridin-4-yl)phenyl)-3-(2,2,2-trifluoroethyl)pyrrolidine-1-carboxamide], < 10 nM; with `Cc1ccc(NC(=O)N2CCC(CC(F)(F)F)C2)cc1-c1cc(O[C@H]2CCOC2)nc(N2CCOCC2)c1` (stereo partly drawn) [Example 188, N-(4-methyl-3-(2-morpholino-6-(((S)-tetrahydrofuran-3-yl)oxy)pyridin-4-yl)phenyl)-3-(2,2,2-trifluoroethyl)pyrrolidine-1-carboxamide], < 10 nM.
As for `Cc1ccc(NC(=O)N2CCC(CC(F)(F)F)C2)cc1-c1cc(OCCCO)nc(N2CCOCC2)c1` (stereo not drawn) [Example 189, N-(3-(2-(3-hydroxypropoxy)-6-morpholinopyridin-4-yl)-4-methylphenyl)-3-(2,2,2-trifluoroethyl)pyrrolidine-1-carboxamide], the IC50 is < 10 nM.
With `Cc1ccc(NC(=O)N2CCC(CC(F)(F)F)C2)cc1-c1cc(OC2CCN(C)CC2)nc(N2CCOCC2)c1` (stereo not drawn) [Example 190, N-(4-methyl-3-(2-((1-methylpiperidin-4-yl)oxy)-6-morpholinopyridin-4-yl)phenyl)-3-(2,2,2-trifluoroethyl)pyrrolidine-1-carboxamide] the figure was < 10 nM.
For the compound `Cc1ccc(NC(=O)N2CCC(CC(F)(F)F)C2)cc1-c1cc(O[C@H]2CCN(C)C2)nc(N2CCOCC2)c1` (stereo partly drawn) [Example 195, N-(4-methyl-3-(2-(((S)-1-methylpyrrolidin-3-yl)oxy)-6-morpholinopyridin-4-yl)phenyl)-3-(2,2,2-trifluoroethyl)pyrrolidine-1-carboxamide], the IC50 was < 10 nM.
With `Cc1ccc(NC(=O)N2CCC(CC(F)(F)F)C2)cc1-c1cc(OCC(C)(C)CO)nc(N2CCOCC2)c1` (stereo not drawn) [Example 196, N-(3-(2-(3-hydroxy-2,2-dimethylpropoxy)-6-morpholinopyridin-4-yl)-4-methylphenyl)-3-(2,2,2-trifluoroethyl)pyrrolidine-1-carboxamide] the figure was < 10 nM.
The result for `Cc1ccc(NC(=O)N2CCC(CC(F)(F)F)C2)cc1-c1cc(OCC(C)CO)nc(N2CCOCC2)c1` (stereo not drawn) [Example 199, N-(3-(2-(3-hydroxy-2-methylpropoxy)-6-morpholinopyridin-4-yl)-4-methylphenyl)-3-(2,2,2-trifluoroethyl)pyrrolidine-1-carboxamide] reads < 10 nM.
As for `Cc1ccc(NC(=O)N2CCC(CC(F)(F)F)C2)cc1-c1cc(O[C@@H]2CCOC2)nc(N2CCOCC2)c1` (stereo partly drawn) [Example 200, N-(4-methyl-3-(2-morpholino-6-(((R)-tetrahydrofuran-3-yl)oxy)pyridin-4-yl)phenyl)-3-(2,2,2-trifluoroethyl)pyrrolidine-1-carboxamide], the IC50 is < 10 nM.
Take `Cc1ccc(NC(=O)N2CCC(CC(F)(F)F)C2)cc1-c1cc(O[C@H]2CCNC2)nc(N2CCOCC2)c1` (stereo partly drawn) [Example 201, N-(4-methyl-3-(2-morpholino-6-((S)-pyrrolidin-3-yloxy)pyridin-4-yl)phenyl)-3-(2,2,2,- trifluoroethyl)pyrrolidine-1-carboxamide]: the 50% inhibitory concentration (IC50) is < 10 nM.
The result for `Cc1ccc(NC(=O)N2CCC(CC(F)(F)F)C2)cc1-c1cc(O[C@@H]2CCN(C)C2)nc(N2CCOCC2)c1` (stereo partly drawn) [Example 202, N-(4-methyl-3-(2-(((R)-1-methylpyrrolidin-3-yl)oxy)-6-morpholinopyridin-4-yl)phenyl)-3-(2,2,2-trifluoroethyl)pyrrolidine-1-carboxamide] reads < 10 nM; that for `Cc1ccc(NC(=O)N2CCC(CC(F)(F)F)C2)cc1-c1cc(O[C@@H]2CCNC2)nc(N2CCOCC2)c1` (stereo partly drawn) [Example 203, N-(4-methyl-3-(2-morpholino-6-((R)-pyrrolidin-3-yloxy)pyridin-4-yl)phenyl)-3-(2,2,2-trifluoroethyl)pyrrolidine-1-carboxamide], < 10 nM; that for `Cc1ccc(NC(=O)N2CC[C@@H](CC(F)(F)F)C2)cc1-c1cc(OC2CNC2)nc(N2CCOCC2)c1` [Example 204, (S)-N-(3-(2-(azetidin-3-yloxy)-6-morpholinopyridin-4-yl)-4-methylphenyl)-3-(2,2,2-trifluoroethyl)pyrrolidine-1-carboxamide], < 10 nM.
`Cc1ccc(NC(=O)N2CC[C@@H](OC(F)(F)F)C2)cc1-c1cc(OC2CNC2)nc(N2CCOCC2)c1` [Example 205, (R)-N-(3-(2-(azetidin-3-yloxy)-6-morpholinopyridin-4-yl)-4-methylphenyl)-3-(trifluoromethoxy)pyrrolidine-1-carboxamide]: the IC50 is < 10 nM.
As to `Cc1ccc(NC(=O)N2CC[C@@H](CC(F)(F)F)C2)cc1-c1cc(OC2CC(O)C2)nc(N2CCOCC2)c1` (stereo partly drawn) [Example 206, (3S)-N-[3-[2-(3-hydroxycyclobutoxy)-6-(morpholin-4-yl)pyridin-4-yl]-4-methylphenyl]-3-(2,2,2-trifluoroethyl)pyrrolidine-1-carboxamide], the IC50 was < 10 nM.
For the compound `Cc1ccc(NC(=O)N2CC[C@@H](CC(F)(F)F)C2)cc1-c1cc(O[C@H]2CC[C@H](O)C2)nc(N2CCOCC2)c1` [Example 207, (3S)-N-[3-(2-[[(1S,3S)-3-hydroxycyclopentyl]oxy]-6-(morpholin-4-yl)pyridin-4-yl)-4-methylphenyl]-3-(2,2,2-trifluoroethyl)pyrrolidine-1-carboxamide], the IC50 was < 10 nM.
With `Cc1ccc(NC(=O)N2CC[C@@H](CC(F)(F)F)C2)cc1-c1cc(O[C@@H]2CC[C@@H](O)C2)nc(N2CCOCC2)c1` [Example 208, (3S)-N-[3-(2-[[(1R,3R)-3-hydroxycyclopentyl]oxy]-6-(morpholin-4-yl)pyridin-4-yl)-4-methylphenyl]-3-(2,2,2-trifluoroethyl)pyrrolidine-1-carboxamide] the figure was < 10 nM.
For `Cc1ccc(NC(=O)N2CC[C@@H](CC(F)(F)F)C2)cc1-c1cc(O[C@H]2CC[C@@H](O)C2)nc(N2CCOCC2)c1` [Example 209, (3S)-N-[3-(2-[[(1S,3R)-3-hydroxycyclopentyl]oxy]-6-(morpholin-4-yl)pyridin-4-yl)-4-methylphenyl]-3-(2,2,2-trifluoroethyl)pyrrolidine-1-carboxamide], the IC50 was < 10 nM.
With `Cc1ccc(NC(=O)N2CC[C@@H](CC(F)(F)F)C2)cc1-c1cc(O[C@@H]2CC[C@H](O)C2)nc(N2CCOCC2)c1` [Example 210, (3S)-N-[3-(2-[[(1R,3S)-3-hydroxycyclopentyl]oxy]-6-(morpholin-4-yl)pyridin-4-yl)-4-methylphenyl]-3-(2,2,2-trifluoroethyl)pyrrolidine-1-carboxamide] the figure was < 10 nM; with `Cc1ccc(NC(=O)N2CC[C@@H](CC(F)(F)F)C2)cc1-c1cc(OC2CCC(C)(O)CC2)nc(N2CCOCC2)c1` (stereo partly drawn) [Example 211, (3S)-N-(3-[2-[(4-hydroxy-4-methylcyclohexyl)oxy]-6-(morpholin-4-yl)pyridin-4-yl]-4-methylphenyl)-3-(2,2,2-trifluoroethyl)pyrrolidine-1-carboxamide (cis)], < 10 nM.
With `Cc1ccc(NC(=O)N2CC[C@@H](CC(F)(F)F)C2)cc1-c1cc(OC2CCC(C)(O)CC2)nc(N2CCOCC2)c1` (stereo partly drawn) [Example 212, (3S)-N-(3-[2-[(4-hydroxy-4-methylcyclohexyl)oxy]-6-(morpholin-4-yl)pyridin-4-yl]-4-methylphenyl)-3-(2,2,2-trifluoroethyl)pyrrolidine-1-carboxamide (trans)] the figure was < 10 nM; with `Cc1ccc(NC(=O)N2CC[C@@H](OC(F)(F)F)C2)cc1-c1cc(OC[C@H](C)O)nc(N2CCOCC2)c1` [Example 213, (3R)-N-(3-[2-[(2S)-2-hydroxypropoxy]-6-(morpholin-4-yl)pyridin-4-yl]-4-methylphenyl)-3-(trifluoromethoxy)pyrrolidine-1-carboxamide], < 10 nM; with `Cc1ccc(NC(=O)N2CC[C@@H](OC(F)(F)F)C2)cc1-c1cc(O[C@H](C)CO)nc(N2CCOCC2)c1` [Example 214, (3R)-N-[3-(2-[[(2R)-1-hydroxypropan-2-yl]oxy]-6-(morpholin-4-yl)pyridin-4-yl)-4-methylphenyl]-3-(trifluoromethoxy)pyrrolidine-1-carboxamide], < 10 nM.
Take `Cc1ccc(NC(=O)N2CC[C@@H](OC(F)(F)F)C2)cc1-c1cc(O[C@@H](C)CO)nc(N2CCOCC2)c1` [Example 215, (3R)-N-[3-(2-[[(2S)-1-hydroxypropan-2-yl]oxy]-6-(morpholin-4-yl)pyridin-4-yl)-4-methylphenyl]-3-(trifluoromethoxy)pyrrolidine-1-carboxamide]: the IC50 is < 10 nM.

For orientation: IC50 means the midpoint of a concentration-inhibition curve.
